Consider 19 compounds from patent US5574071A, “Method of lowering cholesterol” (Hoffmann-La Roche Inc., priority 1993, dated 1996).

pEC50: −log10 of the molar value. Structures can show the parent of a compound that is named as a salt.

One data set concerns LDL receptor in human hepatoma cells (Hep G2). Put plainly: Inhibition of cholesterol synthesis in human hepatoma cells (Hep G2), determined by stimulation of LDL receptors (ELISA, C7-LDL antibody). Format: cell-based. Particulars: HepG2, Table B, versus untreated cells, read-out: EC50 (concentration which increases the activity of the LDL receptor by 50% in comparison to the control). The procedure:
Thus, the inhibition of cholesterol :synthesis in human hepatoma cells (Hep G2) was determined on the basis of the stimulation of the LDL receptors induced in parallel. The cells were placed in microtitre plates and treated with the cholesterol synthesis inhibitor. The concentration of the LDL receptor is measured by ELISA methodology, with the C7-LDL antibody being used as the primary antibody. The EC50 values in nM/I in Table B hereinafter correspond to the concentration of cholesterol synthesis inhibitor which increases the activity of the receptor by 50% in comparison to the control, that is, untreated cells.
A general note: In an ELISA, binding on a coated surface is turned into a signal by an enzyme label.
As to `C=CCN(C)CC=CCOc1ccc(C(=O)c2ccc(Br)cc2)cc1` [Compound 1, trans-4-[[4-(allymethylamino)-2-butenyl]oxy]-4'-bromo-benzophenone], the pEC50 is 7.30.
On the same count and under the same terms, in the case of `C=CCN(C)Cc1ccc(-c2ccc(C(=O)c3ccc(C#N)cc3)cc2)cc1` [Compound 2, p-[[4'-[(allylmethylamino)methyl]-4-biphenylyl]carbonyl]-benzonitrile] it was 7.37.
Same read-out and setting: the value for `C=CCN(C)CC=CCOc1ccc(C(=O)c2ccc([N+](=O)[O-])cc2)cc1` [Compound 3, trans-4-[[4-(allylmethylamino)-2-butenyl]oxy]-4'-nitro-benzophenone] was 7.20; that for `CN(C)Cc1ccc(-c2ccc(C(=O)c3ccc([N+](=O)[O-])cc3Cl)cc2)cc1` [Compound 4, 2-chloro-4-nitrophenyl 4'-[(dimethylamino)methyl]-4-biphenylyl ketone] was 6.82.
The same measure, in the same setting: the value for `C=CCN(C)CC=CCOc1ccc(C(=O)c2ccc(Cl)cc2Cl)cc1` [Compound 7, trans-4-[[4-(allymethylamino)-2-butenyl]oxy]-2',4'-dichloro-benzophenone] was 7.09; that for `C=CCN(C)CCCCCCOc1ccc(C(=O)c2ccc(Br)cc2)cc1` [Example 9a, [4-[6-(allyl-methyl-amino)-hexyloxy]-phenyl]-(4-bromo-phenyl)-methanone hydrobromide] was 7.29.
For the compound `C=CCN(C)CCCCCCOc1ccc(C(=O)c2ccc(Br)cc2)cc1F` [Example 9c, [4-[6-(ally-methyl-amino)-hexyloxy]-3-fluoro-phenyl]-(4-bromo-phenyl)-methanone], the pEC50 was 6.69.
On the same count and under the same terms, in the case of `C=CCN(C)CCCCCCOc1ccc(C(=O)c2ccc(Br)cc2)c(F)c1` [Example 9d, [4-[6-(allyl-methyl-amino)-hexyloxy]-2-fluoro-phenyl]-(4-bromo-phenyl)-methanone] it was 7.24.
On to `C=CCN(C)C/C=C/COc1ccc(C(=O)c2ccc(Br)cc2)cc1F` [Example 9f, (E)-[4-[4-(allyl-methyl-amino)-but-2-enyloxy]-3-fluoro-phenyl]-(4-bromo-phenyl)-methanone], for which the pEC50 is 8.00.
As for `C=CCN(C)C/C=C/COc1ccc(C(=O)CCCC(C)C)cc1` [Example 9g, (E)-I -[4-[4-(allyl-methyl-amino)-but-2-enyloxy]-phenyl]-5-methyl-hexan-l-one], the pEC50 is 6.75.
Still for that read-out and setting: the value for `C=CCN(C)C/C=C/COc1ccc(C(=O)c2ccc(I)cc2)cc1` [Example 9h, (E)-[4-[4-(allyl-methyl-amino)-but-2-enyloxy]-phenyl]-(4-iodo-phenyl)-methanone] was 7.03; that for `C=CCN(C)C/C=C/COc1ccc(C(=O)c2ccc(C#N)cc2)cc1F` [Example 9j, (E)-[4-[4-(allyl-methyl-amino)-but-2-enyloxy]-3-fluoro-benzoyl]-benzonitrile] was 7.72; that for `C=CCN(C)C/C=C/COc1ccc(C(=O)c2c(F)cccc2F)cc1F` [Example 9l, (E)-[4-[4-(allyl-methyl-amino)-but-2-enyloxy]-3-fluoro-phenyl]-(2,6-difluoro-phenyl)-methanone] was 6.66.
The same measure, in the same setting: the value for `C=CCN(C)C/C=C/COc1ccc(C(=O)CCC=C(C)C)cc1` [Example 9m, (E)-I -[4-[4-(allyl-methyl-amino)-but-2-enyloxy]phenyl]-5-methyl-hex-4-en-l-one] was 7.47; that for `C=CCN(C)C/C=C/COc1ccc(C(=O)c2ccc(Br)cc2)c(F)c1` [Example 9n, (E)-[4-[4-(allyl-methyl-amino)-but-2-enyloxy]-2-fluoro-phenyl]-(4-bromo-phenyl)-methanone] was 6.88.
Consider `C=CCN(C)C/C=C/COc1ccc(CC(=O)CCC=C(C)C)cc1F` [Example 9p, (E)-1-[4-[4-(allyl-methylamino)-but-2-enyloxy]-3-fluoro-phenyl]-6-methyl-hept-5-en-2-one], for which the pEC50 was 7.01.
Same read-out and setting: the value for `C=CCN(C)C/C=C/COc1ccc(CC(=O)c2ccc(Br)cc2)cc1` [Example 9r, (E)-2-[4-[4-(allyl-methyl-amino)-but-2-enyloxy)-phenyl]-1-(4-bromo-phenyl)-ethanone] was 6.65; that for `CCN(C)C/C=C/COc1ccc(C(=O)c2ccc(Br)cc2)cc1` [Example 9s, (E)-(4-bromo-phenyl)-[4-[4-(ethyl-methyl-amino)-but-2-enyloxy]-phenyl]-methanone hydrobromide] was 6.91.

Test system in a further data set: not listed separately
Put plainly: Toxicity (LD50 per os in the mouse). Particulars: in vivo, po.
In turn, `CC(C)=CCCC(=O)c1ccc(-c2ccc(CN(C)C)cc2)cc1` [Compound 20] gave an LD50 of 1250 to 2500 mg/kg.

Broadly, the LD50 is the dose expected to kill half of the subjects tested. A low value points to greater toxicity.
